Where a SMILES comes first, the peptide text is derived from it. Bridges are numbered along the chain shown (N, C = ends). [ ]: non-standard residue; d: D form. The star is where a group is joined. Phe(4-CF3) = N[C@@H](Cc1ccc(C(F)(F)F)cc1)C(=O)O; Phe(4-CN) = N#Cc1ccc(C[C@H](N)C(=O)O)cc1; Phe(4-Cl) = N[C@@H](Cc1ccc(Cl)cc1)C(=O)O; 2Nal = N[C@@H](Cc1ccc2ccccc2c1)C(=O)O; NMe2Val = CC(C)[C@@H](C(=O)*)N(C)C; NMeLys(Me) = CNCCCC[C@H](NC)C(=O)O; NMeF = CN[C@@H](Cc1ccccc1)C(=O)O; NMeI = CC[C@H](C)[C@H](NC)C(=O)O; Tic = O=C(O)[C@@H]1Cc2ccccc2CN1; NMeL = CN[C@@H](CC(C)C)C(=O)O; dNMeOrn = CN[C@H](CCCN)C(=O)O; NMeK = CN[C@@H](CCCCN)C(=O)O; dHiv = CC(C)[C@@H](O)C(=O)O; NMeA = CN[C@@H](C)C(=O)O
Test system: A549 cells
Assay: Growth inhibition assay (MTS) in A549 cells
Assay type: cell-based
Conditions: for IC50: read-out: IC50 (concentration for 50% growth inhibition of A549 cells), MTS assay, 72 h treatment, 0.5% DMSO, absorbance 490 nm, n = 3; for cytotoxicity / bioactivity in words: MTS assay
Experimental: Growth Inhibition AssayS3
A549 cells were cultured in Dulbecco’s modified Eagle’s medium (DMEM; Sigma) supplemented with 10% (v/v) fetal bovine serum at 37 °C in a 5% CO2-incubator. Growth inhibition assays using A549 cells were performed in 96-well plates (BD Falcon). A549 cells were seeded at 1000 cells/well in 90 μL of culture media, respectively, and were cultured for 24 h. Chemical compounds in DMSO were diluted 50-fold with the culture medium in advance. 30 μL of the chemical diluents were added.
The final volume of DMSO in the medium was equal to 0.5% (v/v). The cells under chemical treatment were incubated for a further 72 h. The wells in the plates were washed twice with the cultured medium without phenol-red. After 1-hour incubation with 100 μL of the medium, the cell culture in each well was supplemented with 20 μL of the MTS reagent (Promega), followed by incubation for additional 40 min. Absorbance at 490 nm of each well was measured using a Wallac 1420 ARVO SX multilabel counter (Perkin Elmer). Three experiments were performed per condition and the averages of inhibition rates in each condition were evaluated to determine IC50 values using the GraphPad Prism software.

With `CC[C@H](C)[C@H]1C(=O)N[C@@H](C)C(=O)N(C)[C@@H](CC(C)C)C(=O)N[C@@H](Cc2ccc(OC)cc2)C(=O)N(C)CCC[C@H](N(C)C(=O)[C@H](CC(C)C)N(C)C(=O)[C@H](C)N(C)C(=O)[C@H](OC(=O)[C@H](C(C)C)N(C)C)C(C)C)C(=O)N(C)[C@@H](C)C(=O)N1C` [2c] the IC50 was 9600 ± 3200 nM.

For `CC[C@H](C)[C@H]1C(=O)N[C@@H](C)C(=O)N(C)[C@@H](CC(C)C)C(=O)N2Cc3ccccc3C[C@H]2C(=O)N(C)CCCC[C@H](N(C)C(=O)[C@H](CC(C)C)N(C)C(=O)[C@H](C)N(C)C(=O)[C@H](OC(=O)[C@H](C(C)C)N(C)C)C(C)C)C(=O)N(C)[C@@H](C)C(=O)N1C` [10o] (NMe2Val-[dHiv][NMeA][NMeL][NMeLys(Me)][NMeA][NMeI]A[NMeL][Tic]; lactam 4-C), the “cytotoxicity / bioactivity in words” value was “loss of bioactivity” and the IC50 was greater than 10000 nM.

`CC[C@H](C)[C@H]1C(=O)N[C@@H](C)C(=O)N(C)[C@@H](CC(C)C)C(=O)N[C@@H](Cc2ccc(C(F)(F)F)cc2)C(=O)N(C)CCCC[C@H](N(C)C(=O)[C@H](CC(C)C)N(C)C(=O)[C@H](C)N(C)C(=O)[C@H](OC(=O)[C@H](C(C)C)N(C)C)C(C)C)C(=O)N(C)[C@@H](C)C(=O)N1C` [10c] (NMe2Val-[dHiv][NMeA][NMeL][NMeLys(Me)][NMeA][NMeI]A[NMeL][Phe(4-CF3)]; lactam 4-C) showed an IC50 of 370 ± 70 nM.

For `CC[C@H](C)[C@H]1C(=O)N[C@@H](C)C(=O)N(C)[C@@H](CC(C)C)C(=O)N[C@@H](Cc2ccc(OC)cc2)C(=O)NCCC[C@@H](N(C)C(=O)[C@H](CC(C)C)N(C)C(=O)[C@H](C)N(C)C(=O)[C@H](OC(=O)[C@H](C(C)C)N(C)C)C(C)C)C(=O)N(C)[C@@H](C)C(=O)N1C` [2h] (NMe2Val-[dHiv][NMeA][NMeL][dNMeOrn][NMeA][NMeI]A[NMeL]Y(Me); lactam 4-C), the IC50 was greater than 10000 nM.

In the case of `CC[C@H](C)[C@H]1C(=O)N[C@@H](C)C(=O)N(C)[C@@H](CC(C)C)C(=O)N[C@@H](Cc2ccc3ccccc3c2)C(=O)N(C)CCCC[C@H](N(C)C(=O)[C@H](CC(C)C)N(C)C(=O)[C@H](C)N(C)C(=O)[C@H](OC(=O)[C@H](C(C)C)N(C)C)C(C)C)C(=O)N(C)[C@@H](C)C(=O)N1C` [10q] (NMe2Val-[dHiv][NMeA][NMeL][NMeLys(Me)][NMeA][NMeI]A[NMeL][2Nal]; lactam 4-C), the IC50 is reported as 280 ± 30 nM.

Work on `CC[C@H](C)[C@H]1C(=O)N[C@@H](C)C(=O)N(C)[C@@H](CC(C)C)C(=O)N[C@@H](Cc2ccc(Cl)cc2)C(=O)N(C)CCCC[C@H](N(C)C(=O)[C@H](CC(C)C)N(C)C(=O)[C@H](C)N(C)C(=O)[C@H](OC(=O)[C@H](C(C)C)N(C)C)C(C)C)C(=O)N(C)[C@@H](C)C(=O)N1C` [10f] (NMe2Val-[dHiv][NMeA][NMeL][NMeLys(Me)][NMeA][NMeI]A[NMeL][Phe(4-Cl)]; lactam 4-C) yielded an IC50 of 710 ± 190 nM.

With `CC[C@H](C)[C@H]1C(=O)N[C@@H](C)C(=O)N(C)[C@@H](CC(C)C)C(=O)N(C)[C@@H](Cc2ccccc2)C(=O)N(C)CCCC[C@H](N(C)C(=O)[C@H](CC(C)C)N(C)C(=O)[C@H](C)N(C)C(=O)[C@H](OC(=O)[C@H](C(C)C)N(C)C)C(C)C)C(=O)N(C)[C@@H](C)C(=O)N1C` [10n] (NMe2Val-[dHiv][NMeA][NMeL][NMeLys(Me)][NMeA][NMeI]A[NMeL][NMeF]; lactam 4-C) the “cytotoxicity / bioactivity in words” value was “loss of bioactivity” and the IC50 was greater than 10000 nM.

`CC[C@H](C)[C@H]1C(=O)N[C@@H](C)C(=O)N(C)[C@@H](CC(C)C)C(=O)N[C@H](Cc2ccc(OC)cc2)C(=O)N(C)CCCC[C@H](N(C)C(=O)[C@H](CC(C)C)N(C)C(=O)[C@H](C)N(C)C(=O)[C@H](OC(=O)[C@H](C(C)C)N(C)C)C(C)C)C(=O)N(C)[C@@H](C)C(=O)N1C` [9e] (NMe2Val-[dHiv][NMeA][NMeL][NMeLys(Me)][NMeA][NMeI]A[NMeL][dY](Me); lactam 4-C) showed an IC50 greater than 10000 nM.

Compound `CC[C@H](C)[C@H]1C(=O)N[C@@H](C)C(=O)N(C)[C@@H](CC(C)C)C(=O)N[C@@H](Cc2ccc(C#N)cc2)C(=O)N(C)CCCC[C@H](N(C)C(=O)[C@H](CC(C)C)N(C)C(=O)[C@H](C)N(C)C(=O)[C@H](OC(=O)[C@H](C(C)C)N(C)C)C(C)C)C(=O)N(C)[C@@H](C)C(=O)N1C` [10d] (NMe2Val-[dHiv][NMeA][NMeL][NMeLys(Me)][NMeA][NMeI]A[NMeL][Phe(4-CN)]; lactam 4-C) has an IC50 of 1500 ± 500 nM.

Work on `CC[C@H](C)[C@H]1C(=O)N[C@@H](C)C(=O)N(C)[C@@H](CC(C)C)C(=O)N[C@@H](Cc2ccc(OC)cc2)C(=O)NCCCC[C@H](N(C)C(=O)[C@H](CC(C)C)N(C)C(=O)[C@H](C)N(C)C(=O)[C@H](OC(=O)[C@H](C(C)C)N(C)C)C(C)C)C(=O)N(C)[C@@H](C)C(=O)N1C` [2e] (NMe2Val-[dHiv][NMeA][NMeL][NMeK][NMeA][NMeI]A[NMeL]Y(Me); lactam 4-C) yielded an IC50 of 850 ± 20 nM.

— article PMC8762706, “Design of Coibamide A Mimetics with Improved Cellular Bioactivity” (ACS Medicinal Chemistry Letters, 2021)
